From PMC6731595, “The anti-parasitic agent suramin and several of its analogues are inhibitors of the DNA binding protein Mcm10” (Open Biology, 2019)

How the values were obtained:
[1] = target: T1, Xenopus internal domain Mcm10 (xMcm10-ID) (Xenopus laevis, UniProt Q5EAW4); test: Fluorescence polarization HTS and dose-response assay, 5′-6FAM probe binding to xMcm10-ID; conditions: dose-response with repurchased or purchased compound
T1 construct: xMcm10-ID (amino acid residues 229 to 427); 6xHis (HRV 3C site) (N, cleaved yes); made in house; host or cells: E. coli BL21(DE3)
T1 sequence (Q5EAW4 229-427): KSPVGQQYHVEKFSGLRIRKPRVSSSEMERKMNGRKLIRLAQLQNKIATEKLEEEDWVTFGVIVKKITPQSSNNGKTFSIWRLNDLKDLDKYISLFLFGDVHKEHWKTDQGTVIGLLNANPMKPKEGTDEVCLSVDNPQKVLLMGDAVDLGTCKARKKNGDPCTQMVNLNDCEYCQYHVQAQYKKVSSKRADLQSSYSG
Experimental: A fluorescence polarization (FP) HTS assay was established to detect inhibitors of the binding of the 5′-6FAM 10-mer oligo probe to Mcm10. Test compounds dissolved in DMSO were added to 384-well plates (Corning 4514) using an Echo 550 acoustic dispenser (final DMSO 0.1%) to achieve a final single point screening concentration of 10 µM. Then 10 µl of 2× Xenopus internal domain Mcm10 (xMcm10-ID, final concentration 2 µM) in binding buffer (20 mM Tris HCl, 100 mM NaCl, 5% glycerol, and 0.01% triton, pH 7.5) was added using the Combi nL Multidrop dispenser. Finally, 10 µl of 2× 5′-6FAM DNA (final 12.5 nM) in binding buffer was added using the Multidrop. DMSO (0.1%, high signal) and probe only (low signal) controls were included on every plate. Plates were mixed for 2 min, incubated for 60 min at RT in the dark, and read on a CLARIOstar multimode plate reader (excitation: 482-16, emission: 530-40, dichroic filter: LP504).
The LOPAC pilot screen identified the sulfhydryl reagent 4-chloromercuribenzoic acid as an inhibitor in the fluorescence polarization (FP) assay. As there was no known Mcm10 inhibitor, 4-chloromercuribenzoic acid (30 μM) was used as a positive control on initial screening plates. Following the discovery of suramin as a Mcm10 inhibitor, suramin (7 μM) was used as a positive control on subsequent screening plates. To confirm activity, screening hits were tested in dose response experiments (8 concentrations in duplicate) using xMcm10-ID. Similar dose response experiments were conducted with suramin and its analogs to confirm activity for hMcm10-ID (1 μM) and xMcm10-FL (2 μM) and to determine selectivity relative to RPA70AB (0.4 μM). Saturation experiments for each protein were conducted using increasing concentrations of protein with a fixed probe concentration (12.5 nM). FP was measured in mP units, and ∆mP values for each well were calculated as the difference between the measured mP and the average of the “probe only” controls. […] The parallel and perpendicular mP values were also used to calculate total fluorescence intensity (TFI) determined by the sum of parallel mP + (2 x perpendicular mP). TFI was used to detect fluorescence interference by compounds [1]. […] IC50 values were calculated using the four parameter logistic equation in Prism 6.0 (GraphPad). Ki values were obtained using an online Ki calculator according to the equations of Nikolovska-Coleska (http://sw16.im.med.umich.edu/soft-ware/calc_ki/). KD values were calculated using the one site or two site binding equations in Prism 6.0 (GraphPad).

[2] = system: DNA replication of sperm chromatin in Xenopus egg extracts; test: In vitro DNA replication assay in Xenopus S-phase egg extracts ([α-32P]dGTP incorporation); assay type: biochemical; conditions: 10, 50, 150 and 300 µM
Experimental: Xenopus egg extracts were prepared according to the method of Murray. Replication of sperm chromatin in S-phase egg extracts was monitored as previously described. Compounds identified by HTS were added to replication reactions immediately prior to addition of [α-^32P]dGTP (Perkin Elmer BLU514H250UC).
To determine whether the four remaining confirmed HTS hits affected DNA replication, in vitro replication assays were performed using Xenopus S-phase egg extracts incubated with sperm chromatin [25, 34]. DNA replication was measured in the presence of bronopol, fumarprotocetraric acid, iriginol and suramin or DMSO by the incorporation of [α-^32P]dGTP. […] For this reason, further studies focused on suramin alone.
Figure 1. Suramin inhibits DNA replication in an in vitro Xenopus replication assay. HTS hits were evaluated for inhibition of [α-^32P]dGTP incorporation into DNA using a cell-free extract prepared from Xenopus eggs at increasing concentrations (10, 50, 150 and 300 µM indicated by black triangle from right to left). No chemical (–) and DMSO were used as negative controls for replication inhibition (far left and far right lanes).

Row | SMILES | inhibition of 5′-6FAM probe binding to xMcm10-ID (result in words) [1] | DNA replication, [α-32P]dGTP incorporation (result in words) [2]
1 | O=C(O)c1cc[c]([Hg][Cl])cc1 [4-chloromercuribenzoic acid] | active | –
2 | CC(=O)Oc1cc(-c2coc3cc(OC(C)=O)c(OC(C)=O)c(OC(C)=O)c3c2=O)cc(OC(C)=O)c1OC(C)=O [iriginol hexaacetate] | active | only suramin exhibited a dose-dependent decrease in DNA replication
